Experimental data: US10656158B2, “Identification of enzyme activity through determination of its localization” (International Business Machines Corporation, priority 2014, dated 2020)

Target: T1, MurA enzyme (Bacillus subtilis, UniProt P70965)
T1 construct: expressed in transfected cells
Experiment: MurA-CFP enzyme localization (condensation) by fluorescence imaging in B. subtilis cells
Type: cell-based
Conditions: for state of MurA-CFP enzyme in the cell (localized or diffuse): exposure during exponential growth, 5 mM fosfomycin or 0.5 μg ml^−1 vancomycin, fluorescence imaging, 30° C.
Description: Enzymatic activity of the MurA enzyme in Bacillus subtilis was measured in the presence of enzyme condensation modulating agents. MurA enzyme is involved in an enzymatic biosynthetic pathway that catalyzes a biosynthetic precursor of peptidoglycan, a polymer of the cell wall. The agents that were assessed for effects on MurA were antibiotics fosfomycin and vancomycin.
The B. subtilis cells were cultivated to express a MurA-CFP conjugate protein (MurA-cyan fluorescent protein) under its natural promoter. After one hour in exponential growth, 1 ml of cell culture was centrifuged. The supernatant was collected and added to 2 ml of melted […] agarose solution in LB. The resulting 1.2% solution of molten agar/culture supernatant was supplemented with 0.5 μg ml^−1 FM 4-64 dye (N-(3-triethylammoniumpropyl)-4-(6-(4-(diethylamino) phenyl) hexatrienyl) pyridinium dibromide). Then 5 mM fosfomycin or 0.5 μg ml^−1 vancomycin was added to the well of a culture slide (wells 18 mm diameter×1.75 mm depth) and covered with a glass slide.
After cooling, the cover glass was removed and two air pockets were cut out of the agarose with a 15 ml tube, leaving a 3-5 mm agar bridge in the center of the well. Seven microliters of the remaining culture was spread over the agar, partially dried and sealed with cover glass. After cooling, the slide was removed and two air pockets were cut out of the agar leaving a 3-5 mm agar bridge in the center of the well. Cells were suspended in LB with FM4-64 dye (0.5 μg ml^−1) and were added at the agar bridge and covered by a glass coverslip. To prevent drying during the experiment, 50% glycerol was applied to the region of contact between the slide and the coverslip.
The slide was equilibrated in an environmentally controlled chamber at 30° C. (Precision Control Weather Station) for at least 10 min prior to visualization. […] After 2 hours of imaging, MurA-CFP expressing cells stopped growing, but the condensation of the enzyme could be detected by a bright fluorescent spot.

T1 sequence (P70965 whole entry): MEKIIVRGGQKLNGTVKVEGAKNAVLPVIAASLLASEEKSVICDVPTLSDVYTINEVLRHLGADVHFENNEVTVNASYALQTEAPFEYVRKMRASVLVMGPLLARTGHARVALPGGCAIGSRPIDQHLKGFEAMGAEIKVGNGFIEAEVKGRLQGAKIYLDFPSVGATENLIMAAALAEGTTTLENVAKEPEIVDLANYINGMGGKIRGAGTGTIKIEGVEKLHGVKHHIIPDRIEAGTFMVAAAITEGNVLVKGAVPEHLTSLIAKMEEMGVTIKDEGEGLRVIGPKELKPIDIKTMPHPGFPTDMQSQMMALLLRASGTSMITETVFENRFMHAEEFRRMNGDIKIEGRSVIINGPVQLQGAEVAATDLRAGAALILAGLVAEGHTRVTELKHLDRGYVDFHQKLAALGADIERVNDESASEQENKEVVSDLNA

C[C@@H]1O[C@@H]1P(=O)(O)O [Fosfomycin, fosfomycin]
areas of localized MurA-CFP (added to the cells during stationary growth before MurA began to localize (not shown)): not observed
state of MurA-CFP enzyme in the cell (localized or diffuse): localized

CN[C@H](CC(C)C)C(=O)N[C@H]1C(=O)N[C@@H](CC(N)=O)C(=O)N[C@H]2C(=O)N[C@H]3C(=O)N[C@H](C(=O)N[C@H](C(=O)O)c4cc(O)cc(O)c4-c4cc3ccc4O)[C@H](O)c3ccc(c(Cl)c3)Oc3cc2cc(c3O[C@@H]2O[C@H](CO)[C@@H](O)[C@H](O)[C@H]2O[C@H]2C[C@](C)(N)[C@H](O)[C@H](C)O2)Oc2ccc(cc2Cl)[C@H]1O [Vancomycin, vancomycin]
state of MurA-CFP enzyme in the cell (localized or diffuse): diffuse
